Test results published in ChEMBL document CHEMBL1201862, “PubChem BioAssay data set” (2004).
The source made the active and inactive calls.

How the values were obtained:
[1] = molecular target: T1, Neuropeptide Y receptor type 1 (Homo sapiens, UniProt P25929); format: functional;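 note: HEK293 cells with a CNG channel challenged with NPY then isoproterenol; potency as antagonist that reverses NPY suppression of cAMP signal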
T1 sequence (P25929 whole entry): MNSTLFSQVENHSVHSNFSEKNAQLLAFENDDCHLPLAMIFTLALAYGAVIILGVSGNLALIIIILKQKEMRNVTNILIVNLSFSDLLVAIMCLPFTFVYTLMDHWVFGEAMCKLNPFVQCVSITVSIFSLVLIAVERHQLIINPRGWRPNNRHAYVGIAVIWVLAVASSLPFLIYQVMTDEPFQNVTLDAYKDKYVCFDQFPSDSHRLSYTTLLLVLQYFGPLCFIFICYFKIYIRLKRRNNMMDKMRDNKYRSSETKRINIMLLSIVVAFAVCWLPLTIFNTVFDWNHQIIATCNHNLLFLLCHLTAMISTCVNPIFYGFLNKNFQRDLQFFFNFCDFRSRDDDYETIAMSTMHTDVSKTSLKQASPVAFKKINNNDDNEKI

[2] = molecular target: T2, Neuropeptide Y receptor type 2 (Homo sapiens, UniProt P49146); format: functional, cell-based;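 note: HEK293 cells expressing the receptor and a CNG channel; stimulus was NPY near EC95 followed by isoproterenol to raise cAMP; antagonist potency measured as restoring cAMP signal that NPY suppresses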
T2 sequence (P49146 whole entry): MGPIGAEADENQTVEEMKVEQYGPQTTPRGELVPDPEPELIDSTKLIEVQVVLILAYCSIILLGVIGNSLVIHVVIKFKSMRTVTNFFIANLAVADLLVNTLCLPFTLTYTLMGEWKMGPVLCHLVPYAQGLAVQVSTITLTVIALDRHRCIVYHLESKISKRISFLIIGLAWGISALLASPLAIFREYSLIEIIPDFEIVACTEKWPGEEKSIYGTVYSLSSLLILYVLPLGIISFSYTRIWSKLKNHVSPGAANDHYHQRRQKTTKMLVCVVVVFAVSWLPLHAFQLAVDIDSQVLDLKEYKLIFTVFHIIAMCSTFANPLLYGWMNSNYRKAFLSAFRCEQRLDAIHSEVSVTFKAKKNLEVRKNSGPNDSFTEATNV

[3] = molecular target: T3, Cytochrome P450 3A4 (Homo sapiens, UniProt P08684); conditions: Potency
T3 sequence (P08684 whole entry): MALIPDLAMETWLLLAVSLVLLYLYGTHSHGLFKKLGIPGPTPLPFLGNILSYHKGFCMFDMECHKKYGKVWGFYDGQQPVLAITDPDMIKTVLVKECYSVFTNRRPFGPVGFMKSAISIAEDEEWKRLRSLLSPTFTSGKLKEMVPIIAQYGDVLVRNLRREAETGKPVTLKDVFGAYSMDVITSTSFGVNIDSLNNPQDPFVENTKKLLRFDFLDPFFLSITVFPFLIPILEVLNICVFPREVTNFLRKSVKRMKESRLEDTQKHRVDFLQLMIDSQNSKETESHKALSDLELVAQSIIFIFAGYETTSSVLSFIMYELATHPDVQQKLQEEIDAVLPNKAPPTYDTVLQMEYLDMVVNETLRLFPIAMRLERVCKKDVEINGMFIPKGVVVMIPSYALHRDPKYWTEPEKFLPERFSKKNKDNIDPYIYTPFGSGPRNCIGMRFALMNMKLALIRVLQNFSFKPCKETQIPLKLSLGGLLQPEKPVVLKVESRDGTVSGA

[4] = molecular target: T4, Cytochrome P450 2C9 (Homo sapiens, UniProt P11712); conditions: Potency
T4 sequence (P11712 whole entry): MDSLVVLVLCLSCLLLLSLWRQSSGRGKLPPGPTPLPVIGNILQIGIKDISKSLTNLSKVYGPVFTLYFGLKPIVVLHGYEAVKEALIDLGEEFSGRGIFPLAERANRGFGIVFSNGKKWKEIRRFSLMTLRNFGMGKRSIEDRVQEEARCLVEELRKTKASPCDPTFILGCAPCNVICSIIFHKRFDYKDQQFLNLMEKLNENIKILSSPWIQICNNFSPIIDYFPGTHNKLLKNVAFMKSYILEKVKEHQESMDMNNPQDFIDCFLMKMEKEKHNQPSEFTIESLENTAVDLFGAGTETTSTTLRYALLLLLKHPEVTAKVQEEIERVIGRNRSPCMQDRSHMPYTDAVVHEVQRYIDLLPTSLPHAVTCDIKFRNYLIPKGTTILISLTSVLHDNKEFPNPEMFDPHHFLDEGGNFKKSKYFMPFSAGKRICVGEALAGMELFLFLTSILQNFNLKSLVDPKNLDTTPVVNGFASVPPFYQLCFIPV

[5] = molecular target: Prothrombin (Homo sapiens, UniProt P00734); assay: Thrombin 1536 HTS Dose Response Confirmation. [Related pubchem assays: 1046 (Thrombin 1536 HTS; hits were confirmed in this assay)]; format: functional
[6] = system: Saccharomyces cerevisiae; assay: S. cerevisiae Caspase-1/ASC signal blockers IC50, NALP1 inhibitor project selectivity test (AID 488863); format: functional, organism-based
[7] = molecular target: NACHT, LRR and PYD domains-containing protein 1 (Homo sapiens, UniProt Q9C000); assay: NALP1 inhibitors in yeast, dose response, luminescent (AID 488860); format: functional
NACHT, LRR and PYD domains-containing protein 1, sequence (Q9C000 1-1212 limits assumed): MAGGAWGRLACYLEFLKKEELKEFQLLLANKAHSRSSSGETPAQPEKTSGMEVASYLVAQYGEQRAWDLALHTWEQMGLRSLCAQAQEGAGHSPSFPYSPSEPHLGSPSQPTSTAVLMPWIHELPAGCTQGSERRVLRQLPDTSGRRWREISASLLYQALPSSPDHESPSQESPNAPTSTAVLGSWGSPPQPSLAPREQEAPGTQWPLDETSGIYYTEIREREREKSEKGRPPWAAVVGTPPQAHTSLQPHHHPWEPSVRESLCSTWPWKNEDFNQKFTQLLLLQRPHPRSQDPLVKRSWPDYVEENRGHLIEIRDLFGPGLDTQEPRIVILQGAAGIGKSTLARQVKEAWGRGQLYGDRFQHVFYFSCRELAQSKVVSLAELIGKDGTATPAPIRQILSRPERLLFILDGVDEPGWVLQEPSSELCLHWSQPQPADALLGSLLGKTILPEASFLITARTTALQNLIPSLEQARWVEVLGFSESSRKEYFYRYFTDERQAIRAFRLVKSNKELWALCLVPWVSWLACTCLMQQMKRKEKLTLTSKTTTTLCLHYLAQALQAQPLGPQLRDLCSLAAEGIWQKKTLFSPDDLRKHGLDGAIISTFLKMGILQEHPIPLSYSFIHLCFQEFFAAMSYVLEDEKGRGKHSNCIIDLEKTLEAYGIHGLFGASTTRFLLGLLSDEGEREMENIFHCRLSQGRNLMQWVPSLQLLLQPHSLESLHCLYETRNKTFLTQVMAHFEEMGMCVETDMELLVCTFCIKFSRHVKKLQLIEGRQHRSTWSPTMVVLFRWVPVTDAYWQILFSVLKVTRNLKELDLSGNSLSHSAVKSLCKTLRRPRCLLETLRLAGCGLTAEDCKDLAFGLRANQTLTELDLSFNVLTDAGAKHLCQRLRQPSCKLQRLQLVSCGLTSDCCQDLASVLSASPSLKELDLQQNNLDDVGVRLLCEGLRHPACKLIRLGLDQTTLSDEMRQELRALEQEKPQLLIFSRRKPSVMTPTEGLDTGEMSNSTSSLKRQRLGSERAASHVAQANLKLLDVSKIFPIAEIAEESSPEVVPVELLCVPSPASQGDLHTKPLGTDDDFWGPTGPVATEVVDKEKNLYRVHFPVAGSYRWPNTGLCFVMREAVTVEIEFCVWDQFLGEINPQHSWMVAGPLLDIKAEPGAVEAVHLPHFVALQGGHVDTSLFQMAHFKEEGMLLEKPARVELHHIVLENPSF
NACHT, LRR and PYD domains-containing protein 1, sequence (Q9C000 1213-1473 limits assumed): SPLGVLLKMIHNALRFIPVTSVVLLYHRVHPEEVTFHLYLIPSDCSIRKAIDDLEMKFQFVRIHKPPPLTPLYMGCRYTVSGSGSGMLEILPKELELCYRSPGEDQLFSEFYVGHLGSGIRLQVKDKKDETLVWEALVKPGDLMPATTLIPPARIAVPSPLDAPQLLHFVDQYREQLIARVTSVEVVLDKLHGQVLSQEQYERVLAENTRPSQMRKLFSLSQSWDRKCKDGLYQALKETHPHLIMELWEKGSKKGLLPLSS

[8] = molecular target: T4, Cytochrome P450 2C9
[9] = molecular target: T3, Cytochrome P450 3A4
[10] = molecular target: Peroxisome proliferator-activated receptor gamma/Nuclear receptor coactivator 2 (Homo sapiens, UniProt P37231); format: functional;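 note: agonist potency for raising coactivator recruitment to the receptor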
[11] = molecular target: Peroxisome proliferator-activated receptor gamma/Nuclear receptor coactivator 1 (Homo sapiens, UniProt P37231); format: functional;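 note: agonist potency as compounds enhance coactivator SRC-1 recruitment to PPARgamma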
[12] = molecular target: Peroxisome proliferator-activated receptor gamma/Nuclear receptor coactivator 3 (Homo sapiens, UniProt P37231); format: functional;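 note: agonist potency for raising coactivator recruitment to the receptor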
[13] = molecular target: Trypsin (Sus scrofa, UniProt P00761); assay: trypsin protease activity blockade – biochemical, quenched peptide fluorescence, cherry-pick, selectivity assay for Rce1 protease inhibitor project, dose response (AID 488789)
Trypsin, sequence (P00761 whole entry): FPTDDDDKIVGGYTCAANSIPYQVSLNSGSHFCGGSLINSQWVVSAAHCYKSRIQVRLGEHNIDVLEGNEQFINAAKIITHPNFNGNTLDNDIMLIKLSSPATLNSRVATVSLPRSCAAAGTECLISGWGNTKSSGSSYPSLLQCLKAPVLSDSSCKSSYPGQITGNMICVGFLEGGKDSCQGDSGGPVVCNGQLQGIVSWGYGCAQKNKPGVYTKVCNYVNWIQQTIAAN

[14] = molecular target: T5, CAAX prenyl protease 2 (Homo sapiens, UniProt Q9Y256); assay: inhibition of Ras-converting CAAX protease Rce1 – biochemical, yeast membranes, quenched-peptide fluorescence, cherry-pick, dose response (AID 588849)
T5 sequence (Q9Y256 whole entry): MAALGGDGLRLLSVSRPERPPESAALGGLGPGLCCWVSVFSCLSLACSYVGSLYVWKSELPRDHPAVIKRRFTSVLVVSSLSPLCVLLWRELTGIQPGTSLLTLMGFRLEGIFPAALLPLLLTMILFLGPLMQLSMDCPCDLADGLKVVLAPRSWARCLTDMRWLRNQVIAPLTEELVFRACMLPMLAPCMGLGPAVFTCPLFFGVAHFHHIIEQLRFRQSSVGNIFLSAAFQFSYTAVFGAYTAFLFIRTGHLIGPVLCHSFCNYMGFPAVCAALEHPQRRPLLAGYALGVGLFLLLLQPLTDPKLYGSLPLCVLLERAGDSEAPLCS

[15] = molecular target: Voltage-dependent T-type calcium channel subunit alpha-1H (Homo sapiens, UniProt O95180); format: functional;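 note: channel activity triggered by adding a high calcium stimulation buffer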
Voltage-dependent T-type calcium channel subunit alpha-1H, sequence (O95180 whole entry): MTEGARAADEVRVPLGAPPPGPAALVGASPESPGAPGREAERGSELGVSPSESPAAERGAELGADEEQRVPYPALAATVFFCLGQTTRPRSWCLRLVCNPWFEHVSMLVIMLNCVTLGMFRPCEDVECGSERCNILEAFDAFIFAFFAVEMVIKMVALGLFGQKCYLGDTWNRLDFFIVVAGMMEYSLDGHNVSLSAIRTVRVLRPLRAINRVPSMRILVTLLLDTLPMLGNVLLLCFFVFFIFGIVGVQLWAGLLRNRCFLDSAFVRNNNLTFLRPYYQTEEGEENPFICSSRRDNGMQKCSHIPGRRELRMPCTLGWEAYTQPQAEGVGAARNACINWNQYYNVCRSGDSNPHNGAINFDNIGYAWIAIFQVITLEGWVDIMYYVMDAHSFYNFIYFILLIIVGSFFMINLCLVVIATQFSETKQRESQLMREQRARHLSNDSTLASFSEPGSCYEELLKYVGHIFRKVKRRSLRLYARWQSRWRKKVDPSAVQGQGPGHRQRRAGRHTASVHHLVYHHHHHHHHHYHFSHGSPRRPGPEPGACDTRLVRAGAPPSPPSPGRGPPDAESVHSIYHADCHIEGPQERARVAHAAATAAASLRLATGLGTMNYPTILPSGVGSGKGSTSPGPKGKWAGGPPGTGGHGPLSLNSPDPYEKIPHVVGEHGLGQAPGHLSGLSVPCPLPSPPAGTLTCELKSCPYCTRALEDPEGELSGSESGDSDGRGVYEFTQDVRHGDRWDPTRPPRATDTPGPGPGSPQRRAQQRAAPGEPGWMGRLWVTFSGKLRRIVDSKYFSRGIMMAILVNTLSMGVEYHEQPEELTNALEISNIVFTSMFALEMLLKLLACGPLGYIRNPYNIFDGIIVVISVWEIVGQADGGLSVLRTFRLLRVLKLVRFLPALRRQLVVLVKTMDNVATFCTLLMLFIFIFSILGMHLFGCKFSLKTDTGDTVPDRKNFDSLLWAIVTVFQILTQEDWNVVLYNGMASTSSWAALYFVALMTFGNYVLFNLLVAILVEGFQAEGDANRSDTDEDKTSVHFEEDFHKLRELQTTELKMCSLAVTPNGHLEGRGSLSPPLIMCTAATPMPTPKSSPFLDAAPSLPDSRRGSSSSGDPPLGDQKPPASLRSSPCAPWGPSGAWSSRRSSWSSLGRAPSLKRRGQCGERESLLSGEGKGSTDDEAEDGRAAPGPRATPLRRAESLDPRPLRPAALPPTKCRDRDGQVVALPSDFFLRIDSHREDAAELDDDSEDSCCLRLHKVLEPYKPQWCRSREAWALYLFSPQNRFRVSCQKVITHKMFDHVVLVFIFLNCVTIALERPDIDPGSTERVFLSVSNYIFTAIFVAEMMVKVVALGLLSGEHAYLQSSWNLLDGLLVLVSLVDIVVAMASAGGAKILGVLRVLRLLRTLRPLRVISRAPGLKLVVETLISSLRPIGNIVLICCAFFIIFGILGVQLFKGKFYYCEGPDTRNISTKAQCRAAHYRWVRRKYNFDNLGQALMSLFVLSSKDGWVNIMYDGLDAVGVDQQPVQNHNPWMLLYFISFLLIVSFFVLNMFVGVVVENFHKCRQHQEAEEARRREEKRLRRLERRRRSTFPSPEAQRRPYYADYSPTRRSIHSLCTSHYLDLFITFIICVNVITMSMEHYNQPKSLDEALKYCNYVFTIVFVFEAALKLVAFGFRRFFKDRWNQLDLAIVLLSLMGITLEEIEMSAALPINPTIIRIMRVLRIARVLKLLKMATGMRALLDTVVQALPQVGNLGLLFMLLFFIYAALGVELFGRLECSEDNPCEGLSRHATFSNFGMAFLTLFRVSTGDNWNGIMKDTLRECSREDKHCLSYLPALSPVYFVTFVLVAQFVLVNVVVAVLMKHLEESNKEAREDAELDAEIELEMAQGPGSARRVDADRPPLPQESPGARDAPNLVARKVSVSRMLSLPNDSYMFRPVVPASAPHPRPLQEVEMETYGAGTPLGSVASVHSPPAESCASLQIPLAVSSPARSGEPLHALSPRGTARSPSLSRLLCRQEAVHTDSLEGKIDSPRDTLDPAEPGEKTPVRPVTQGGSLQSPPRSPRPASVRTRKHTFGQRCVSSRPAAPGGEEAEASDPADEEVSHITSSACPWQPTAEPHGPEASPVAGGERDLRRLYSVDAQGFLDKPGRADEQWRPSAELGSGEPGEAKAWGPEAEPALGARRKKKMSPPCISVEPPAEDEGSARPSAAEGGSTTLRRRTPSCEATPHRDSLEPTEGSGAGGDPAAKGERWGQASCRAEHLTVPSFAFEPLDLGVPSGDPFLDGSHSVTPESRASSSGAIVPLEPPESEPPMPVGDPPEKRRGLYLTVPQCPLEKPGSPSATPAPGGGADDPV

[16] = molecular target: CAAX prenyl protease 2 (Saccharomyces cerevisiae S288c, UniProt Q03530); format: biochemical
[17] = molecular target: T6, Cytochrome P450 1A2 (Homo sapiens, UniProt P05177);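 note: PubChem cytochrome P450 panel assay, CYP1A2 panel member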
T6 sequence (P05177 whole entry): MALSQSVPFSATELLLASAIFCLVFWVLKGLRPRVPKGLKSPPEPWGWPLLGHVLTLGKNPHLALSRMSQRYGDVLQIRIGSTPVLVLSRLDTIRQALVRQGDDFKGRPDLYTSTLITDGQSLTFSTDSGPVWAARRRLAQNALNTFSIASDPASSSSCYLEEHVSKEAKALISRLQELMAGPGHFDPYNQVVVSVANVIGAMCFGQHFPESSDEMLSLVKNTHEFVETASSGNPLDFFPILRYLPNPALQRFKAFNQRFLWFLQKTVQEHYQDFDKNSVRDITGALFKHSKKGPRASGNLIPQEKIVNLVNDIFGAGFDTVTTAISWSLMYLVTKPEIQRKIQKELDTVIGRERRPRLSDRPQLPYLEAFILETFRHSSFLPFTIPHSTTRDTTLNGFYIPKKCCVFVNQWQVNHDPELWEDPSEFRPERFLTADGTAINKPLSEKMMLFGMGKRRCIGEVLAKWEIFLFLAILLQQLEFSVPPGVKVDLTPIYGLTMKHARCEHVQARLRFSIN

[18] = molecular target: T3, Cytochrome P450 3A4; remark: listed apart in the source
[19] = molecular target: T4, Cytochrome P450 2C9; remark: listed apart in the source
[20] = A Cell Based Secondary Assay To Explore Cytotoxicity of Compounds that Sensitize Mycobacterium Tuberculosis to Beta-Lactam Antibiotics.; format: functional
[21] = molecular target: Luciferin 4-monooxygenase (Photinus pyralis, UniProt P08659); assay: Counter Screen for Luciferase-based Assay Positives. [Related pubchem assays: 620, 618, 411 ]
[22] = molecular target: NS3 (Hepatitis C virus, UniProt A3EZJ3); assay: PubChem AID 2173; set-up: species or system Hepacivirus hominis
[23] = system: HT-1080; assay: HT1080 cell viability loss – fluorescence readout (AID 620); format: functional, cell-based; conditions: Homo sapiens
[24] = molecular target: T7, Calpain-2 catalytic subunit (Sus scrofa, UniProt P43367); assay: m-calpain protease blockers, concentration series – biochemical, fluorogenic peptide substrate, dose response (AID 1420); format: functional
T7 sequence (P43367 whole entry): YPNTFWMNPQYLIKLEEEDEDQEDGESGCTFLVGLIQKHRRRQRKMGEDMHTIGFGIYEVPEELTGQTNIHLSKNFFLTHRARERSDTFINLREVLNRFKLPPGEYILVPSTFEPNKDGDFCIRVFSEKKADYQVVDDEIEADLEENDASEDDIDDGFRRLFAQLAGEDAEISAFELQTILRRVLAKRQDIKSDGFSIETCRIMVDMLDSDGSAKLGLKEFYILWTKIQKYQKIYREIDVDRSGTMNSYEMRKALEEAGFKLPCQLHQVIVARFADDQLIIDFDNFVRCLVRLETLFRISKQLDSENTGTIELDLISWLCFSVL

[25] = molecular target: Tumor necrosis factor (Homo sapiens, UniProt P01375); assay: analog potency on TNFa NF-kB signaling – cell-based, revised, SAR follow-up (AID 2337); format: functional
[26] = molecular target: T8, Nucleotide-binding oligomerization domain-containing protein 1 (Homo sapiens, UniProt Q9Y239); assay: blockers of NOD1 pathway activity – revised, SAR follow-up (AID 2333); format: functional
T8 sequence (Q9Y239 whole entry): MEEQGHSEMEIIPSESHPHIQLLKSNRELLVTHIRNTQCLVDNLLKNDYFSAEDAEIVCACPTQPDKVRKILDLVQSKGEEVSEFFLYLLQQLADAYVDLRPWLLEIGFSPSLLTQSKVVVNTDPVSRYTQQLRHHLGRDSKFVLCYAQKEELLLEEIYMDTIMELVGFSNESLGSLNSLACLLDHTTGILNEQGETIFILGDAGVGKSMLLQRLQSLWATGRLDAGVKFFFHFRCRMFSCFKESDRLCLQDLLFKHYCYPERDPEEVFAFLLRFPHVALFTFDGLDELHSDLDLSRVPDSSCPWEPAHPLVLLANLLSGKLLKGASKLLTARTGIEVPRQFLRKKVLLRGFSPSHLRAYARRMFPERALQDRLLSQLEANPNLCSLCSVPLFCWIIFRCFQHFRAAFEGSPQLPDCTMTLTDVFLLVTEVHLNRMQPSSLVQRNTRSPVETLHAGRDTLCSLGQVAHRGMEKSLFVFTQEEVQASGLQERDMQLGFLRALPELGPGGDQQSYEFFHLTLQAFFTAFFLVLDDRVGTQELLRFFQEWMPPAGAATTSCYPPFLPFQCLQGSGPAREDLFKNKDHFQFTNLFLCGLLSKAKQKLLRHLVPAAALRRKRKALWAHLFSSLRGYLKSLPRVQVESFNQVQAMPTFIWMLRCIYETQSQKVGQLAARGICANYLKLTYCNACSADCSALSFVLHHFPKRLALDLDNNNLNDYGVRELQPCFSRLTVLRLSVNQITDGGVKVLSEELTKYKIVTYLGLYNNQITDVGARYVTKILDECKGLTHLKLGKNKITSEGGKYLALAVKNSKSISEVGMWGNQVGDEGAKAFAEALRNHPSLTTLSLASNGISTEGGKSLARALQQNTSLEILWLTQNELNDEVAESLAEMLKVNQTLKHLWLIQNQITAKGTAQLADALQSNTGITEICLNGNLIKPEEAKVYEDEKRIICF

[27] = system: HEK293; assay: cells; conditions: Homo sapiens;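 note: cells exposed to compound for 14 hours overnight before viability readout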
[28] = molecular target: Phosphoethanolamine/phosphocholine phosphatase (Homo sapiens, UniProt Q8TCT1); assay: SAR assay for compounds that inhibit PHOSPHO1. [Related pubchem assays (depositor defined):AID1545, AID1565, AID1574]

With `CCN(CC)CC(O)COc1ccc2c(c1)c(C(C)=O)c(C)n2-c1ccccc1` (centres undefined) the IC50 [1] was 4.37 µM (active) and the IC50 [2] was 6.95 µM (active).
For `COc1cc2c(cc1O)-c1c(O)c(OC)cc3c1[C@H](C2)N(C)CC3`, the AC50 [3] was 20 µM (inconclusive) and the AC50 [4] was 31.6 µM (inconclusive).
In the case of `Cc1ccc2c(c1)c1c3n2CCCNC3CCC1` (centres undefined), the IC50 [5] is reported as > 50 µM (not active), the IC50 [6] is reported as 87.6 µM (active) and the IC50 [7] is reported as > 100 µM (inactive).
With `CC(=O)[C@@H]1CC[C@@H]2[C@@H]3CCC4=CC(=O)CC[C@@]4(C)[C@H]3CC[C@]21C` the AC50 [4] was 39.8 µM (inconclusive), the AC50 [8] was 15.8 µM (inconclusive) and the AC50 [9] was “inconclusive”.
For `COc1ccc(CCN(Cc2nc(O)c3ccccc3n2)C(=O)c2ccco2)cc1OC`, the EC50 [10] was > 79.4 µM (not active), the EC50 [11] was > 79.4 µM (not active) and the EC50 [12] was > 79.4 µM (not active).
For `COc1cc2nc3c(O)n(CCN4CCOCC4)cnc-3c2cc1OC`, the AC50 [13] was 16.1 µM (active) and the AC50 [14] was 9.95 µM (active).
In the case of `O=S(=O)(Nc1ccc(S(=O)(=O)N2CCCCC2)cc1)c1ccc(Br)s1`, the EC50 [15] is reported as 3.58 µM (active).
With `c1coc(-c2ccnc3ncnn23)c1` the AC50 [16] was 24.5 µM (active) and the AC50 [14] was 3.88 µM (active).
In the case of `CN(C)c1ccc(/C=C2\SC(=S)N(Nc3ncc(C(F)(F)F)cc3Cl)C2=O)cc1`, the EC50 [15] is reported as 2.86 µM (active), the AC50 [17] is reported as 5.01 µM (inconclusive) and the AC50 [18] is reported as 14.1 µM (inconclusive). The AC50 [19] was “inconclusive”.
In the case of `COc1ccc(-c2cc(-c3cccs3)c(C#N)c(SCC(=O)NCc3ccccc3)n2)cc1`, the EC50 [10] is reported as 14.2 µM (not active), the EC50 [11] is reported as 18.8 µM (not active) and the EC50 [12] is reported as 22.2 µM (not active).
In the case of `COc1ccc(C(=O)Nc2oc(-c3ccccc3)c(-c3ccccc3)c2C#N)cc1OC`, the CC50 [20] is reported as > 40 µM (active).
In the case of `CC(C)c1ccc(-c2nnn(Cc3nc4ccccc4s3)n2)cc1`, the IC50 [1] is reported as 5.68 µM (active) and the IC50 [2] is reported as 4.61 µM (active).
With `CCc1cc2c(=O)n(Cc3ccco3)c(SCc3c(C)noc3C)nc2s1` the EC50 [21] was 0.34 µM (active), the IC50 [22] was 25.6 µM (not active) and the EC50 [23] was 15.3 µM (active).
In the case of `O=[N+]([O-])c1cc(C(F)(F)F)ccc1NCCc1c[nH]c2ccc(O)cc12`, the CC50 [20] is reported as > 40 µM (active) and the IC50 [24] is reported as 7.48 µM (not active).
With `C=C(C)C(=O)Nc1nnc(-c2cccs2)s1` the IC50 [6] was 15 µM (active) and the IC50 [7] was 11 µM (active).
For `COC(=O)c1c(NC(=O)c2ccc(Cl)cc2)sc2c1CCCC2`, the IC50 [25] was > 20 µM (inactive), the IC50 [26] was > 20 µM (inactive) and the IC50 [27] was > 20 µM (inactive).
In the case of `c1ccc(Nc2nc(-c3ccccc3)[n+](-c3ccccc3)s2)cc1`, the IC50 [28] is reported as 4.99 µM (inactive).
